# Source: patent US20080171716A1, “NUCLEIC ACID MODULATION OF TOLL-LIKE RECEPTOR-MEDIATED IMMUNE STIMULATION” (Protiva Biotherapeutics, Inc., priority 2006, published 2008)
# Legend:
# [1] = target: T1, TLR7 (Mus musculus, UniProt P58681); assay: Immunostimulatory ssRNA-induced IFN-α/IL-6 production in murine Flt3L-derived dendritic cells; type: cell-based; design: Femurs and tibiae of female Balb/C mice were isolated; endogenous in cells; host or cells: Flt3L-derived dendritic cells cultured from bone marrow of female Balb/C mice; conditions: murine Flt3L DC; 1:1 molar ratio; 24 h
# T1 sequence (P58681 27-1050): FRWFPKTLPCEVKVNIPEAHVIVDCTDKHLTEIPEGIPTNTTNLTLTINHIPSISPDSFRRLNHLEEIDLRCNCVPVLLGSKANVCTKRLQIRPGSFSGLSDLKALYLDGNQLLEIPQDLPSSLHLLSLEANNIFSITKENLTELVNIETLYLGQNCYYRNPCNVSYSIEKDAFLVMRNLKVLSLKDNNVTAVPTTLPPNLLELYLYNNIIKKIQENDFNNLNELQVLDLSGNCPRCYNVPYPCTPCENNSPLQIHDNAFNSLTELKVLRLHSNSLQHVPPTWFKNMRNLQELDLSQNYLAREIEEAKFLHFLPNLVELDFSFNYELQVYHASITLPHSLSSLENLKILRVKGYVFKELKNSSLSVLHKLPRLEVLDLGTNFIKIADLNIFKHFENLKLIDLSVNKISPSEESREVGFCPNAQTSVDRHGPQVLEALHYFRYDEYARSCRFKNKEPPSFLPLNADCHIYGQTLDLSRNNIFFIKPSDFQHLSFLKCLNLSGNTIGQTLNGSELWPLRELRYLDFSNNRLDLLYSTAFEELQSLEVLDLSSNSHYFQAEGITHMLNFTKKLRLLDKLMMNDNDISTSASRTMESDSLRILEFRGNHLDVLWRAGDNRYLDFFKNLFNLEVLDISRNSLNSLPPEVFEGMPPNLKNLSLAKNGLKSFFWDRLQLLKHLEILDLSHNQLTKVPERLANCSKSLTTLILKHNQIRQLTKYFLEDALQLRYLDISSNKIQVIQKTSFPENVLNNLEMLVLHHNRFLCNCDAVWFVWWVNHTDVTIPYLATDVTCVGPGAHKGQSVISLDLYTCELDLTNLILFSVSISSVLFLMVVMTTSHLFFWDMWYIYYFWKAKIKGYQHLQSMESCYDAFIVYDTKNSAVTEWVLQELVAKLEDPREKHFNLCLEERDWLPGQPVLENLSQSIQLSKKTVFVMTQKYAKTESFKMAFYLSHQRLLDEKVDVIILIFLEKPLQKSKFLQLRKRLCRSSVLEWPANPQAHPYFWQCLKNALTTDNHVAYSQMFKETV
# Procedure: Lipid Encapsulation of RNA and ODN. RNA or ODN were encapsulated in liposomes by a process of spontaneous vesicle formation as described in Judge et al., supra, and Jeffs et al., Pharm. Res., 22:362-372 (2005).
# Flt3L-derived dendritic cells (DC) were generated as described in Gilliet et al., J. Exp. Med., 195:953-958 (2002), using 100 ng/ml murine Flt3-ligand (Peprotech) supplemented media. Femurs and tibiae of female Balb/C mice were isolated and rinsed in sterile PBS. The ends of bones were cut and marrow harvested in complete media (RPMI 1640, 10% heat inactivated FBS, 1% penicillin/streptomycin, 2 mM L-glutamine, 1 mM sodium pyruvate, 25 mM HEPES, 50 μM 2-mercaptoethanol). Bone marrow cells were passed through a 70 μm strainer and centrifuged at 1000 rpm for 7 min. and resuspended in complete media supplemented with 100 ng/ml murine Flt3L to 2×10^6 cells/ml. 2 ml of cells were seeded in 6-well plates and 1 ml fresh media was added every two to three days. On day 9 of culture, non-adherent cells were washed in complete media and plated into 96-well plates at concentrations ranging from 0.5 to 2.5×10^5 cells/well. […]
# Cytokine ELISA. All cytokines were quantified using sandwich ELISA kits according to the manufacturer's instructions. […]
# [2] = target: T1, TLR7; assay: In vivo inhibition of loxoribine-mediated cytokine induction in mice; design: from tissue; host or cells: whole animal: female Balb/C mice, plasma cytokines; species or system Balb/C mice
# Procedure: Cytokine ELISA. All cytokines were quantified using sandwich ELISA kits according to the manufacturer's instructions. These were mouse and human IFN-α (PBL Biomedical; Piscataway, N.J.) and IL-6 (eBioscience; San Diego, Calif.).
# In Vivo Cytokine Induction. Animal studies were performed at Protiva Biotherapeutics in accordance with Canadian Council on Animal Care guidelines and following protocol approval by the local Animal Care and Use Committee. Female Balb/C mice were subjected to a two-week quarantine and acclimation period prior to use at six to eight-weeks of age. RNA formulations were administered by standard injection in the lateral tail vein in 0.2 ml PBS. Six hours after injection, blood was collected by cardiac puncture and processed as plasma for cytokine analysis. In experiments studying inhibition of cytokine induction by loxoribine, formulated RNA (100 μg) was administered IV 2 h prior to IV administration of 1 mg loxoribine in PBS. Blood was collected by cardiac puncture 2 h after administration of loxoribine and processed as plasma for cytokine analysis.
# [3] = 100 μg formulated RNA IV 2 h prior to 1 mg Lox IV, plasma 2 h after Lox
substance,measurement,setting,value
"polyUmod21: 2′OMe-uridine homopolymer of 21 nucleotides in length (UUUUUUUUUUUUUUUUUUUUU; all 2'-O-methyl, backbone not given here)",IFN-α production induced by immunostimulatory ssRNA when co-administered,[1],completely abrogated measurable
same,IL-6 production induced by immunostimulatory ssRNA when co-administered,[1],completely abrogated measurable
same,reduction of plasma IFN-α compared to PBS pre-treatment,[2]; [3],79%+/−5%
same,reduction of plasma IFN-α compared to mice treated with GFP-S ssRNA,[2]; [3],92%+/−2%
same,reduction of plasma IL-6 compared to PBS pre-treatment,[2]; [3],72%+/−8%
same,reduction of plasma IL-6 compared to mice treated with GFP-S ssRNA,[2]; [3],96%+/−1%
same,loxoribine-mediated cytokine induction relative to GFP-S ssRNA and PBS treated mice,[2]; pre-treatment 2 h prior to 1 mg Lox,significantly reduced
